Reference: ChEMBL document CHEMBL4814069, “Nucleotide analogues containing a pyrrolidine, piperidine or piperazine ring: Synthesis and evaluation of inhibition of plasmodial and human 6-oxopurine phosphoribosyltransferases and in vitro antimalarial activity” (Eur J Med Chem, 2021)

Tests used:
[1] = Inhibition of Plasmodium vivax HGPRT using PRib-PP as substrate by Hanes-plot based method
[2] = biological target: T1, Hypoxanthine-guanine phosphoribosyltransferase (Homo sapiens, UniProt P00492); test: Inhibition of human HGPRT using PRib-PP as substrate by Hanes-plot based method
T1 sequence (P00492 whole entry): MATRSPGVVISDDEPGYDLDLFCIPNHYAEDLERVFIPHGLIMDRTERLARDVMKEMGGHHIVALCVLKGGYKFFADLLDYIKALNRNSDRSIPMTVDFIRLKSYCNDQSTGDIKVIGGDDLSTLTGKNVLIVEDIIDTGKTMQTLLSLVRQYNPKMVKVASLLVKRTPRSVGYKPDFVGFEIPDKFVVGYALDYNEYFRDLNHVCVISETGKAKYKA

[3] = Inhibition of Plasmodium falciparum HGXPRT using PRib-PP as substrate by Hanes-plot based method
[4] = Selectivity index, ratio of Ki for human HGPRT to Ki for Plasmodium vivax HGPRT; format: toxicity
[5] = Selectivity index, ratio of Ki for human HGPRT to Ki for Plasmodium falciparum HGXPRT; format: toxicity
HL-60 = test: Cytotoxicity against human HL60 cells assessed as reduction in cell viability at 10 uM incubated for 72 hrs by Celltiter-Glo assay; format: cell-based; conditions: hl-60, 72 h
NHDF [6] = test: Cytotoxicity against human NHDF cells assessed as reduction in cell viability at 50 uM incubated for 72 hrs by Celltiter-Glo assay; format: cell-based
Plasmodium falciparum [7] = test: Antimalarial activity against asexual stage of chloroquine-sensitive Plasmodium falciparum D6 infected in human erythrocytes assessed as inhibition of parasite growth measured after 96 hrs by [3H]-hypoxanthine incorporation assay; format: functional, organism-based
HepG2 [8] = test: Cytotoxicity against human HepG2 cells assessed as reduction in cell viability at 10 uM incubated for 72 hrs by Celltiter-Glo assay; format: cell-based; conditions: hepg2, 72 h
Plasmodium falciparum [9] = test: Antimalarial activity against asexual stage of chloroquine-resistant Plasmodium falciparum W2 infected in human erythrocytes assessed as parasite growth inhibition measured after 96 hrs by [3H]-hypoxanthine incorporation assay; format: functional, organism-based
NHDF [10] = test: Cytotoxicity against human NHDF cells assessed as reduction in cell viability at 10 uM incubated for 72 hrs by Celltiter-Glo assay; format: cell-based
[11] = Cytotoxicity against human NHDF cells assessed as cell viability at 100 uM incubated for 72 hrs by Celltiter-Glo assay; format: cell-based; conditions: read-out: Activity
HeLa S3 = test: Cytotoxicity against human HeLa S3 cells assessed as reduction in cell viability at 10 uM incubated for 72 hrs by Celltiter-Glo assay; format: cell-based; conditions: hela s3, 72 h
NHDF [12] = test: Cytotoxicity against human NHDF cells assessed as reduction in cell viability incubated for 72 hrs by Celltiter-Glo assay; format: cell-based
HepG2 [13] = test: Cytotoxicity against human HepG2 cells assessed as reduction in cell viability at 50 uM incubated for 72 hrs by Celltiter-Glo assay; format: cell-based; conditions: hepg2, 72 h
CCRF-CEM = test: Cytotoxicity against human CCRF-CEM cells assessed as reduction in cell viability at 10 uM incubated for 72 hrs by Celltiter-Glo assay; format: cell-based
[14] = Selectivity for antimalarial activity against Plasmodium falciparum over cytotoxicity against human HepG2 cells; format: toxicity, cell-based; conditions: read-out: Selectivity Index
HepG2 [15] = test: Cytotoxicity against human HepG2 cells assessed as reduction in cell viability incubated for 72 hrs by Celltiter-Glo assay; format: cell-based; conditions: HepG2, 72 h
[16] = Cytotoxicity against human HepG2 cells assessed as cell viability at 100 uM incubated for 72 hrs by Celltiter-Glo assay; format: cell-based; conditions: read-out: Activity
[17] = Selectivity for antimalarial activity against Plasmodium falciparum over cytotoxicity against human NHDF cells; format: toxicity, cell-based; conditions: read-out: Selectivity Index

Row | SMILES | Ki [1] | Ki [2] | Ki [3] | Ratio Ki [4] | Ratio Ki [5] | Activity (HL-60) | Activity (NHDF [6]) | IC50 (Plasmodium falciparum [7]) | Activity (HepG2 [8]) | IC50 (Plasmodium falciparum [9]) | Activity (NHDF [10]) | viability at 72 h, 100 µM [11] | Activity (HeLa S3) | IC50 (NHDF [12]) | Activity (HepG2 [13]) | Activity (CCRF-CEM) | selectivity ratio [14] | IC50 (HepG2 [15]) | viability at 72 h, 100 µM [16] | selectivity ratio [17]
1 | O=c1[nH]cnc2c1ncn2CC1CN(CCP(=O)([O-])[O-])CCN1CCP(=O)([O-])[O-].[Na+].[Na+].[Na+].[Na+] (stereo not given) | 37 µM | 0.43 µM | 3 µM | 0.012 | 0.14 | – | – | – | – | – | – | – | – | – | – | – | – | – | – | –
2 | Nc1nc2c(ncn2[C@H]2CCN(C(=O)CP(=O)(O)O)C2)c(=O)[nH]1 | 2.6 µM | 73 µM | 0.4 µM | 28 | 182 | – | – | – | – | – | – | – | – | – | – | – | – | – | – | –
3 | CCOC(=O)[C@H](Cc1ccccc1)NP(=O)(CCN1CCC[C@H]1Cn1cnc2c(=O)[nH]c(N)nc21)N[C@@H](Cc1ccccc1)C(=O)OCC | – | – | – | – | – | Non-Toxic | Non-Toxic | 7.2 µM | Non-Toxic | 2.5 µM | Non-Toxic | 97% | Non-Toxic | 306 µM | Non-Toxic | Non-Toxic | > 35 | > 250 µM | 98% | > 35
4 | O=c1[nH]cnc2c(C3=NCCN3CCCP(=O)(O)O)c[nH]c12 | 6 µM | > 74 µM | 4.7 µM | > 12 | > 16 | – | – | – | – | – | – | – | – | – | – | – | – | – | – | –
5 | CCOC(=O)[C@H](Cc1ccccc1)NP(=O)(CCN1CCC[C@H]1Cn1cnc2c(=O)[nH]cnc21)N[C@@H](Cc1ccccc1)C(=O)OCC | – | – | – | – | – | Non-Toxic | Non-Toxic | 4.1 µM | Non-Toxic | 6.3 µM | Non-Toxic | 117% | Non-Toxic | 184 µM | Non-Toxic | Non-Toxic | > 29 | > 250 µM | 91% | > 29
6 | CCOC(=O)[C@H](Cc1ccccc1)NP(=O)(CCN1CCC[C@@H]1Cn1cnc2c(=O)[nH]cnc21)N[C@@H](Cc1ccccc1)C(=O)OCC | – | – | – | – | – | Non-Toxic | Non-Toxic | 7.1 µM | Non-Toxic | 9.1 µM | Non-Toxic | 106% | Non-Toxic | – | Non-Toxic | Non-Toxic | – | – | 98% | –
7 | CCOC(=O)[C@H](Cc1ccccc1)NP(=O)(CN1CCCC(Cn2cnc3c(=O)[nH]cnc32)C1)N[C@@H](Cc1ccccc1)C(=O)OCC (stereo not given in full) | – | – | – | – | – | Non-Toxic | Non-Toxic | 7.9 µM | Non-Toxic | 11.7 µM | Non-Toxic | 107% | Non-Toxic | – | Non-Toxic | Non-Toxic | – | – | 105% | –
8 | O=c1[nH]cnc2c1ncn2C[C@@H]1CCCN1CCP(=O)([O-])[O-].[Na+].[Na+] | > 50 µM | > 50 µM | 44 µM | – | > 1.1 | – | – | – | – | – | – | – | – | – | – | – | – | – | – | –
9 | Nc1nc2c(ncn2C[C@@H]2CCCN2CCP(=O)([O-])[O-])c(=O)[nH]1.[Na+].[Na+] | 20 µM | 9 µM | 5 µM | 0.45 | 1.8 | – | – | – | – | – | – | – | – | – | – | – | – | – | – | –
10 | O=c1[nH]cnc2c1ncn2C[C@H]1CCCN1CCP(=O)([O-])[O-].[Na+].[Na+] | > 50 µM | > 50 µM | 15 µM | – | > 3.3 | – | – | – | – | – | – | – | – | – | – | – | – | – | – | –
11 | Nc1nc2c(ncn2CC2CCCN(CP(=O)([O-])[O-])C2)c(=O)[nH]1.[Na+].[Na+] (stereo not given) | 29 µM | 7 µM | 2 µM | 0.24 | 3.5 | – | – | – | – | – | – | – | – | – | – | – | – | – | – | –
12 | Nc1nc2c(ncn2CCN(CCOCCP(=O)(O)O)CCP(=O)(O)O)c(=O)[nH]1 | 0.03 µM | – | 0.19 µM | 2.725 | 0.45 | – | – | – | – | – | – | – | – | – | – | – | – | – | – | –
13 | CCOC(=O)[C@H](Cc1ccccc1)NP(=O)(CCN1CCC[C@@H]1Cn1cnc2c(=O)[nH]c(N)nc21)N[C@@H](Cc1ccccc1)C(=O)OCC | – | – | – | – | – | Non-Toxic | Non-Toxic | 12.1 µM | Non-Toxic | 8 µM | Non-Toxic | 103% | Non-Toxic | – | Non-Toxic | Non-Toxic | – | – | 98% | –
14 | CCOC(=O)[C@H](Cc1ccccc1)NP(=O)(CCN1CCN(CP(=O)(N[C@@H](Cc2ccccc2)C(=O)OCC)N[C@@H](Cc2ccccc2)C(=O)OCC)CC1Cn1cnc2c(=O)[nH]cnc21)N[C@@H](Cc1ccccc1)C(=O)OCC (stereo not given in full) | – | – | – | – | – | Non-Toxic | Non-Toxic | 5.1 µM | Non-Toxic | 2.7 µM | Non-Toxic | 3% | Non-Toxic | – | Non-Toxic | Non-Toxic | – | – | 82% | –
15 | CCOC(=O)[C@H](Cc1ccccc1)NP(=O)(CCN1CCN(CP(=O)(N[C@@H](Cc2ccccc2)C(=O)OCC)N[C@@H](Cc2ccccc2)C(=O)OCC)CC1Cn1cnc2c(=O)[nH]c(N)nc21)N[C@@H](Cc1ccccc1)C(=O)OCC (stereo not given in full) | – | – | – | – | – | Non-Toxic | Non-Toxic | 55.4 µM | Non-Toxic | 32.4 µM | Non-Toxic | 14% | Non-Toxic | – | Non-Toxic | Non-Toxic | – | – | 104% | –
16 | O=c1[nH]cnc2c1ncn2CCN(CCOCCP(=O)(O)O)CCP(=O)(O)O | 0.04 µM | – | 0.2 µM | – | – | – | – | – | – | – | – | – | – | – | – | – | – | – | – | –
17 | O=c1[nH]cnc2c1ncn2CC1CCCN(CP(=O)([O-])[O-])C1.[Na+].[Na+] (stereo not given) | 72 µM | > 50 µM | 17 µM | > 0.7 | > 2.9 | – | – | – | – | – | – | – | – | – | – | – | – | – | – | –
18 | Nc1nc2c(ncn2C[C@H]2CCCN2CCP(=O)([O-])[O-])c(=O)[nH]1.[Na+].[Na+] | 39 µM | > 50 µM | 30 µM | > 1.3 | > 1.7 | – | – | – | – | – | – | – | – | – | – | – | – | – | – | –
19 | Nc1nc2c(ncn2CC2CN(CCP(=O)([O-])[O-])CCN2CCP(=O)([O-])[O-])c(=O)[nH]1.[Na+].[Na+].[Na+].[Na+] (stereo not given) | 6 µM | 0.15 µM | 2 µM | 0.025 | 0.075 | – | – | – | – | – | – | – | – | – | – | – | – | – | – | –
20 | CCOC(=O)[C@H](Cc1ccccc1)NP(=O)(CN1CCCC(Cn2cnc3c(=O)[nH]c(N)nc32)C1)N[C@@H](Cc1ccccc1)C(=O)OCC (stereo not given in full) | – | – | – | – | – | Non-Toxic | Non-Toxic | 11.7 µM | Non-Toxic | 3.9 µM | Non-Toxic | 103% | Non-Toxic | – | Non-Toxic | Non-Toxic | – | – | 103% | –
